According to patent US20140031278A1, “Novel Glucagon Analogues” (NOVO NORDISK A/S, priority 2011, published 2014):
pEC50: −log10 of the molar value. *1 amine or outer side, *2 acyl side, *3 side chain or, on linkers, in order; H or OH if unused. Where a SMILES comes first, the peptide text is derived from it. Side-chain parts run from the residue outwards. γGlu = O=C(O)[C@H](CCC(=O)[*:2])N[*:1]

Molecular target: T1, glucagon receptor (Homo sapiens, UniProt P47871)
T1 construct: expressed in transfected cells
T1 sequence (P47871 26-477): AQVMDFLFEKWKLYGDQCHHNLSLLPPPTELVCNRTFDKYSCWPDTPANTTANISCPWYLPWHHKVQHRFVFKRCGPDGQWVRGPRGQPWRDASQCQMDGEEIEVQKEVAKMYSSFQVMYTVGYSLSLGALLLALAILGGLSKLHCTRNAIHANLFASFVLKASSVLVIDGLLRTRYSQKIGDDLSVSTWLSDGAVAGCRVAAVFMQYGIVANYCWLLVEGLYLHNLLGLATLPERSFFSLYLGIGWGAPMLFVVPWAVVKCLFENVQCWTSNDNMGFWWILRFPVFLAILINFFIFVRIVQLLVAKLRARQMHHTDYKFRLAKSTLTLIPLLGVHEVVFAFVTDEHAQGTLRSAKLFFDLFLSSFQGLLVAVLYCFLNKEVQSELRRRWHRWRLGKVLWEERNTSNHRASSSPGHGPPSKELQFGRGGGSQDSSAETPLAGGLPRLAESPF
Assay: Assay (I) Glucagon activity (cAMP biosensor, FLIPR)
Type: cell-based
Conditions: HEK-293 cells with cloned glucagon receptor and cAMP biosensor; end point after 6 minutes
Method: The glucagon receptor was cloned into HEK-293 cells having a membrane bound cAMP biosensor (ACTOne™). The cells (14000 per well) were incubated (37° C., 5% CO2) overnight in 384-well plates. Next day the cells were loaded with a calcium responsive dye that only distributed into the cytoplasm. Probenecid, an inhibitor of the organic anion transporter, was added to prevent the dye from leaving the cell. A PDE inhibitor was added to prevent formatted cAMP from being degraded, The plates were placed into a […] and the glucagon analogues were added. End point data were collected after 6 minutes. An increase in intracellular cAMP was proportional to an increased in calcium concentrations in the cytoplasm. When calcium was bound the dry a fluorescence signal was generated. EC50-values were calculated in Prism5.

Structure (SMILES)	pEC50
CC(C)C[C@H](NC(=O)[C@H](Cc1ccc(O)cc1)NC(=O)[C@H](CCCCN)NC(=O)[C@H](CO)NC(=O)[C@H](Cc1ccc(O)cc1)NC(=O)[C@H](CC(=O)O)NC(=O)[C@H](CO)NC(=O)[C@@H](NC(=O)[C@H](Cc1ccccc1)NC(=O)[C@@H](NC(=O)CNC(=O)[C@H](Cc1c[nH]cn1)NC(=O)[C@H](CO)NC(=O)[C@@H](N)Cc1c[nH]cn1)[C@@H](C)O)[C@@H](C)O)C(=O)N[C@@H](CCC(=O)O)C(=O)N[C@@H](CO)C(=O)N[C@@H](CCCNC(=N)N)C(=O)N[C@@H](CCCNC(=N)N)C(=O)N[C@@H](C)C(=O)N[C@@H](C)C(=O)N[C@@H](CC(=O)O)C(=O)N[C@@H](Cc1ccccc1)C(=O)N[C@H](C(=O)N[C@@H](CCCCNC(=O)CC[C@H](NC(=O)CC[C@H](NC(=O)CC[C@H](NC(=O)CC[C@H](N)C(=O)O)C(=O)O)C(=O)O)C(=O)O)C(=O)N[C@@H](Cc1c[nH]c2ccccc12)C(=O)N[C@@H](CC(C)C)C(=O)N[C@@H](CC(C)C)C(=O)N[C@@H](CO)C(=O)N[C@H](C(=O)O)[C@@H](C)O)C(C)C [Example 5, N^ε24-[(4S)-4-[[(4S)-4-[[(4S)-4-[[(4S)-4-amino-4-carboxybutanoyl]amino]-4-carboxybutanoyl]amino]-4-carboxybutanoyl]amino]-4-carboxybutanoyl]-[His3,Glu15,Ala20,Lys24,Leu27,Ser28]-Glucagon] (H-HSHGTFTSDYSKYLESRRAADFVK([γGlu-γGlu-γGlu-γGlu])WLLST-OH)	10.25
CC(C)C[C@H](NC(=O)[C@H](Cc1ccc(O)cc1)NC(=O)[C@H](CCCNC(=N)N)NC(=O)[C@H](CO)NC(=O)[C@H](Cc1ccc(O)cc1)NC(=O)[C@H](CC(=O)O)NC(=O)[C@H](CO)NC(=O)[C@@H](NC(=O)[C@H](Cc1ccccc1)NC(=O)[C@@H](NC(=O)CNC(=O)[C@H](Cc1c[nH]cn1)NC(=O)[C@H](CO)NC(=O)[C@@H](N)Cc1c[nH]cn1)[C@@H](C)O)[C@@H](C)O)C(=O)N[C@@H](CCC(=O)O)C(=O)N[C@@H](CO)C(=O)N[C@@H](CCCNC(=N)N)C(=O)N[C@@H](CCCNC(=N)N)C(=O)N[C@@H](C)C(=O)N[C@@H](C)C(=O)N[C@@H](CC(=O)O)C(=O)N[C@@H](Cc1ccccc1)C(=O)N[C@H](C(=O)N[C@@H](CCCCNC(=O)CC[C@H](NC(=O)CC[C@H](NC(=O)CC[C@H](NC(=O)CC[C@H](N)C(=O)O)C(=O)O)C(=O)O)C(=O)O)C(=O)N[C@@H](Cc1c[nH]c2ccccc12)C(=O)N[C@@H](CC(C)C)C(=O)N[C@@H](CC(C)C)C(=O)N[C@@H](CO)C(=O)N[C@H](C(=O)O)[C@@H](C)O)C(C)C [Example 6, N^ε24-[(4S)-4-[[(4S)-4-[[(4S)-4-[[(4S)-4-amino-4-carboxybutanoyl]amino]-4-carboxybutanoyl]amino]-4-carboxybutanoyl]amino]-4-carboxybutanoyl]-[His3,Arg12,Glu15,Ala20,Lys24,Leu27,Ser28]-Glucagon] (H-HSHGTFTSDYSRYLESRRAADFVK([γGlu-γGlu-γGlu-γGlu])WLLST-OH)	10.10
CC(C)C[C@H](NC(=O)[C@H](Cc1c[nH]c2ccccc12)NC(=O)[C@H](CCCCNC(=O)CC[C@H](NC(=O)CC[C@H](NC(=O)CC[C@H](NC(=O)CC[C@H](N)C(=O)O)C(=O)O)C(=O)O)C(=O)O)NC(=O)[C@@H](NC(=O)[C@H](Cc1ccccc1)NC(=O)[C@H](CC(=O)O)NC(=O)[C@H](C)NC(=O)[C@H](C)NC(=O)[C@H](CCCNC(=N)N)NC(=O)[C@H](CCCNC(=N)N)NC(=O)[C@@H](NC(=O)[C@H](CC(=O)O)NC(=O)[C@H](CC(C)C)NC(=O)[C@H](Cc1ccc(O)cc1)NC(=O)[C@H](CCCCN)NC(=O)[C@H](CO)NC(=O)[C@H](Cc1ccc(O)cc1)NC(=O)[C@H](CC(=O)O)NC(=O)[C@H](CO)NC(=O)[C@@H](NC(=O)[C@H](Cc1ccccc1)NC(=O)[C@@H](NC(=O)CNC(=O)[C@H](Cc1c[nH]cn1)NC(=O)[C@H](CO)NC(=O)[C@@H](N)Cc1c[nH]cn1)[C@@H](C)O)[C@@H](C)O)[C@@H](C)O)C(C)C)C(=O)N[C@@H](CC(C)C)C(=O)N[C@@H](CO)C(=O)N[C@H](C(=O)O)[C@@H](C)O [Example 7, N^ε24-[(4S)-4-[[(4S)-4-[[(4S)-4-[[(4S)-4-amino-4-carboxybutanoyl]amino]-4-carboxybutanoyl]amino]-4-carboxybutanoyl]amino]-4-carboxybutanoyl]-[His3,Thr16,Ala20,Lys24,Leu27,Ser28]-Glucagon] (H-HSHGTFTSDYSKYLDTRRAADFVK([γGlu-γGlu-γGlu-γGlu])WLLST-OH)	10.61
CC[C@H](C)[C@H](NC(=O)[C@H](CC(=O)O)NC(=O)[C@H](CC(C)C)NC(=O)[C@H](Cc1ccc(O)cc1)NC(=O)[C@H](CCCNC(=N)N)NC(=O)[C@H](CO)NC(=O)[C@H](Cc1ccc(O)cc1)NC(=O)[C@H](CC(=O)O)NC(=O)[C@H](CO)NC(=O)[C@@H](NC(=O)[C@H](Cc1ccccc1)NC(=O)[C@@H](NC(=O)CNC(=O)[C@H](Cc1c[nH]cn1)NC(=O)[C@H](CO)NC(=O)[C@@H](N)Cc1c[nH]cn1)[C@@H](C)O)[C@@H](C)O)C(=O)N[C@@H](CCCNC(=N)N)C(=O)N[C@@H](CCCNC(=N)N)C(=O)N[C@@H](C)C(=O)N[C@@H](C)C(=O)N[C@@H](CC(=O)O)C(=O)N[C@@H](Cc1ccccc1)C(=O)N[C@H](C(=O)N[C@@H](CCCCNC(=O)CC[C@H](NC(=O)CC[C@H](NC(=O)CC[C@H](NC(=O)CC[C@H](N)C(=O)O)C(=O)O)C(=O)O)C(=O)O)C(=O)N[C@@H](Cc1c[nH]c2ccccc12)C(=O)N[C@@H](CC(C)C)C(=O)N[C@@H](CC(C)C)C(=O)N[C@@H](CO)C(=O)N[C@H](C(=O)O)[C@@H](C)O)C(C)C [Example 8, N^ε24-[(4S)-4-[[(4S)-4-[[(4S)-4-[[(4S)-4-amino-4-carboxybutanoyl]amino]-4-carboxybutanoyl]amino]-4-carboxybutanoyl]amino]-4-carboxybutanoyl]-[His3,Arg12,Ile16,Ala20,Lys24,Leu27,Ser28]-Glucagon] (H-HSHGTFTSDYSRYLDIRRAADFVK([γGlu-γGlu-γGlu-γGlu])WLLST-OH)	10.57
CC(C)C[C@H](NC(=O)[C@H](Cc1c[nH]c2ccccc12)NC(=O)[C@H](CCCCNC(=O)CC[C@H](NC(=O)CC[C@H](NC(=O)CC[C@H](NC(=O)CC[C@H](N)C(=O)O)C(=O)O)C(=O)O)C(=O)O)NC(=O)[C@@H](NC(=O)[C@H](Cc1ccccc1)NC(=O)[C@H](CC(=O)O)NC(=O)[C@H](C)NC(=O)[C@H](C)NC(=O)[C@H](CCCNC(=N)N)NC(=O)[C@H](CCCNC(=N)N)NC(=O)[C@@H](NC(=O)[C@H](CC(=O)O)NC(=O)[C@H](CC(C)C)NC(=O)[C@H](Cc1ccc(O)cc1)NC(=O)[C@H](CCCNC(=N)N)NC(=O)[C@H](CO)NC(=O)[C@H](Cc1ccc(O)cc1)NC(=O)[C@H](CC(=O)O)NC(=O)[C@H](CO)NC(=O)[C@@H](NC(=O)[C@H](Cc1ccccc1)NC(=O)[C@@H](NC(=O)CNC(=O)[C@H](Cc1c[nH]cn1)NC(=O)[C@H](CO)NC(=O)[C@@H](N)Cc1c[nH]cn1)[C@@H](C)O)[C@@H](C)O)[C@@H](C)O)C(C)C)C(=O)N[C@@H](CC(C)C)C(=O)N[C@@H](CO)C(=O)N[C@H](C(=O)O)[C@@H](C)O [Example 9, N^ε24-[(4S)-4-[[(4S)-4-[[(4S)-4-[[(4S)-4-amino-4-carboxybutanoyl]amino]-4-carboxybutanoyl]amino]-4-carboxybutanoyl]amino]-4-carboxybutanoyl]-[His3,Arg12,Thr16,Ala20,Lys24,Leu27,Ser28]-Glucagon] (H-HSHGTFTSDYSRYLDTRRAADFVK([γGlu-γGlu-γGlu-γGlu])WLLST-OH)	10.43

Now those with a higher pEC50, led by results:

pEC50	Structure (SMILES)
10.98	CC(=O)N[C@@H](CCC(=O)N[C@@H](CCC(=O)N[C@@H](CCC(=O)N[C@@H](CCC(=O)NCCCC[C@H](NC(=O)[C@@H](NC(=O)[C@H](Cc1ccccc1)NC(=O)[C@H](CC(=O)O)NC(=O)[C@H](CCC(N)=O)NC(=O)[C@H](C)NC(=O)[C@H](CCCNC(=N)N)NC(=O)[C@H](CCCNC(=N)N)NC(=O)[C@H](CO)NC(=O)[C@H](CC(=O)O)NC(=O)[C@H](CC(C)C)NC(=O)[C@H](Cc1ccc(O)cc1)NC(=O)[C@H](CCCCN)NC(=O)[C@H](CO)NC(=O)[C@H](Cc1ccc(O)cc1)NC(=O)[C@H](CC(=O)O)NC(=O)[C@H](CO)NC(=O)[C@@H](NC(=O)[C@H](Cc1ccccc1)NC(=O)[C@@H](NC(=O)CNC(=O)[C@H](Cc1c[nH]cn1)NC(=O)[C@H](CO)NC(=O)[C@@H](N)Cc1c[nH]cn1)[C@@H](C)O)[C@@H](C)O)C(C)C)C(=O)N[C@@H](Cc1c[nH]c2ccccc12)C(=O)N[C@@H](CC(C)C)C(=O)N[C@@H](CC(C)C)C(=O)N[C@@H](CO)C(=O)N[C@H](C(=O)O)[C@@H](C)O)C(=O)O)C(=O)O)C(=O)O)C(=O)O [Example 3]
10.84	CC(=O)N[C@@H](CCC(=O)N[C@@H](CCC(=O)N[C@@H](CCC(=O)N[C@@H](CCC(=O)NCCCC[C@H](NC(=O)[C@@H](NC(=O)[C@H](Cc1ccccc1)NC(=O)[C@H](CC(=O)O)NC(=O)[C@H](C)NC(=O)[C@H](C)NC(=O)[C@H](CCCNC(=N)N)NC(=O)[C@H](CCCNC(=N)N)NC(=O)[C@H](CO)NC(=O)[C@H](CC(=O)O)NC(=O)[C@H](CC(C)C)NC(=O)[C@H](Cc1ccc(O)cc1)NC(=O)[C@H](CCCCN)NC(=O)[C@H](CO)NC(=O)[C@H](Cc1ccc(O)cc1)NC(=O)[C@H](CC(=O)O)NC(=O)[C@H](CO)NC(=O)[C@@H](NC(=O)[C@H](Cc1ccccc1)NC(=O)[C@@H](NC(=O)CNC(=O)[C@H](Cc1c[nH]cn1)NC(=O)[C@H](CO)NC(=O)[C@@H](N)Cc1c[nH]cn1)[C@@H](C)O)[C@@H](C)O)C(C)C)C(=O)N[C@@H](Cc1c[nH]c2ccccc12)C(=O)N[C@@H](CC(C)C)C(=O)N[C@@H](CC(C)C)C(=O)N[C@@H](CO)C(=O)N[C@H](C(=O)O)[C@@H](C)O)C(=O)O)C(=O)O)C(=O)O)C(=O)O [Example 4, N^ε24-[(4S)-4-[[(4S)-4-[[(4S)-4-[[(4S)-4-acetamido-4-carboxybutanoyl]amino]-4-carboxybutanoyl]amino]-4-carboxybutanoyl]amino]-4-carboxybutanoyl]-[His3,Ala20,Lys24,Leu27,Ser28]-Glucagon] (H-HSHGTFTSDYSKYLDSRRAADFVK([γGlu-γGlu-γGlu-γGlu-Ac])WLLST-OH)
